One block for each compound: values may come before it.
Experiments:
[1] = test system: glutathione S-transferase (GST); conditions: FIG. 2
porcine liver esterase = assay: Decay in the presence of porcine liver esterase; assay type: in vitro ADME; conditions: 25° C., phosphate buffer pH 7.4, porcine liver esterase suspension added
Experimental: This example describes the determination of the halflife of the Compound produced in Example 24 in the absence and presence of porcine liver esterase at 25° C. and pH 7.4.
A 0.009 M ethanolic stock solution of O2—[S-acetyl-(2-mercaptoethyl)]1-[(2-carboxylato)pyrrolidin-1-yl]diazen-1-ium-1,2-diolate [S-acetyl-(2-mercapto-ethyl)]ester was prepared. The decay of this compound was monitored at 25° C. as 1.5×10^−4 M solutions in a 4 ml quartz cuvette containing 3 ml of phosphate buffer (pH 7.4) and […] of stock solution. The decay of the 232 nm chromophore was monitored on the ultraviolet spectrophotometer. The halflife was estimated as 3.2 hr.
A second set of experiments was carried out using the above parameters to measure the decay after addition of 5 ml of porcine liver esterase suspension. The half-life for the esterase reaction was 8 min at 25° C.

[2] = Cleavage of O2-glucopyranosyl diazeniumdiolate to DEA/NO anion and NO as a function of pH; assay type: physicochemical
[3] = Kinetics of reaction with sodium methoxide in methanol (HPLC); assay type: physicochemical; conditions: reaction with excess NaOMe in methanol; disappearance monitored by HPLC
Source text: This Example illustrates the kinetics of reaction of O^2-(2,4-dinitrophenyl) 1-(N,N-diethylamino)diazen-1-ium-1,2-diolate with sodium methoxide in methanol. The kinetics of this reaction show the rate of conversion of O^2-(2,4-dinitrophenyl) 1-(N,N-diethylamino)diazen-1-ium-1,2-diolate to 1-(N,N-diethylamino)diazen-1-ium-1,2-diolate ion in alkaline or nucleophilic environments.
An excess of NaOMe was used in the reactions; aliquots were collected at intervals and quenched with 0.1 N HCl in methanol. […] This was determined by plotting log[O^2-(2,4-dinitrophenyl) 1-(N,N-diethylamino)diazen-1-ium-1,2-diolate] vs. time to find kobs′ at four different concentrations of NaOMe.

[4] = NO release in the presence or absence of glutathione, chemiluminescence; conditions: 37° C.
Experimental: This Example illustrates the regeneration of NO from O^2-(2,4-dinitrophenyl) 1-(N,N-diethylamino)diazen-1-ium-1,2-diolate in the presence, but not the absence, of glutathione.
A solution containing 1 mM glutathione (GSH) in 10 mM phosphate buffer was degassed by purging with argon for 10 min, whereupon a 3 ml aliquot was mixed with 3 μl of a dioxane solution that was 2 mM in O^2-(2,4-dinitrophenyl) 1-(N,N-diethylamino)diazen-1-ium-1,2-diolate. NO release was monitored by chemiluminescence while the mixture was held at 37° C. […] Total NO generation during the first 112 min was approximately 9 nmol. Assuming that […] of NO is generated per mol of O^2-(2,4-dinitrophenyl) 1-(N,N-diethylamino)diazen-1-ium-1,2-diolate, this 9 nmol corresponds to roughly 75% of the theoretical yield.
The nucleophilic glutathione reacted with the O^2-(2,4-dinitrophenyl) 1-(N,N-diethylamino)diazen-1-ium-1,2-diolate to produce NO according to the equation shown below.

[5] = test system: glutathione S-transferase; assay: Glutathione S-transferase kinetics (UV absorbance at 380 nm); assay type: biochemical; conditions: 25° C., 0.1 M phosphate buffer pH 7.4, enzyme 0.7 μg/ml, glutathione 1.4 mM, diazeniumdiolate 50–100 μM
Source text: The following examples further illustrate the present invention and, of course, should not be construed as in any way limiting its scope. With respect to the following examples, NO was obtained from Matheson Gas Products (Montgomeryville, Pa.), β- and α-glycosidases and porcine liver esterase were obtained from Sigma Chemical Co. (St, Louis, Mo.), polyurethane (Tecoflex) was obtained from Thermedics Inc. (Woburn, Mass.), and glucose and mannose were obtained from Aldrich Chemical Co. (Milwaukee, Wis.). Proton NMR spectra were recorded with a 300 MHz Varian Unity Plus or a Varian XL-200 NMR spectrometer. Spectra were obtained in deuterochloroform for covalent compounds and in D2O for salts. Chemical shifts are reported in parts per million (ppm) downfield from TMS. Low and high resolution mass spectral (MS) measurements were carried out on a VG-Micromass Model 7070 spectrometer. Unless otherwise indicated, MS data were collected in the electron impact mode with sample introduction via direct probe. Ultraviolet (UV) spectra were run as solutions in water or 0.01 M NaOH on an HP 8451A Diode Array spectrophotometer. Glutathione S-transferase kinetics were monitored by measuring the change in UV absorbance at 380 nm with a Beckman DU 640 spectrophotometer. Chemiluminescence measurements were done on a Thermal Energy Analyzer Model 502A instrument (Thermedics, Inc., Woburn, Mass.). […]

[6] = 1 mM GSH in 10 mM phosphate buffer

SMILES: O=[N+]([O-])c1ccc(ON=[N+]([O-])N2CCCC2)c([N+](=O)[O-])c1 [Example 8, O^2-(2,4-dinitrophenyl) 1-(pyrrolidin-1-yl)diazen-1-ium-1,2-diolate]
- relative NO release rate versus time with GST [1]: catalysis of NO release

SMILES: CCN(CC)[N+]([O-])=NOc1ccc([N+](=O)[O-])cc1[N+](=O)[O-] [Example 1, O^2-(2,4-dinitrophenyl) 1-(N,N-diethylamino)diazen-1-ium-1,2-diolate]
- second-order rate constant [3]: 0.131 M⁻¹ s⁻¹
- time NO generation continued at readily detectable levels [4, 6]: approximately 100 minutes
- time of peak nitric oxide generation after reaction was initiated [4, 6]: approximately 15 minutes
- total NO generation during the first 112 min ([4]; 1 mM GSH in 10 mM phosphate buffer, 3 μl of 2 mM solution in 3 ml): approximately 9 nmol
- NO generated as share of the theoretical yield ([4]; 1 mM GSH, first 112 min): roughly 75%
- NO generation with exclusion of the GSH ([4]; 10 mM phosphate buffer, no GSH): no NO generation was observed
- Km [5]: 46.3 µM
- Vmax [5]: 0.89 µM/min

More lines, now with the values ahead:

- melting point: 250 °C (dec.)
SMILES: O=C([O-])C1CCCN1[N+]([O-])=N[O-].[Na+].[Na+] (stereo not shown) [Example 19, disodium 1-[(2-carboxylato)pyrrolidin-1-yl]diazen-1-ium-1,2-diolate]

- half-life for the esterase reaction (porcine liver esterase): 8 min
SMILES: CC(=O)SCCON=[N+]([O-])N1CCCC1C(=O)OCCSC(C)=O (stereo not shown) [Example 24, O^2—[S-acetyl-(2-mercaptoethyl)]1-[(2-carboxylato)pyrrolidin-1-yl]diazen-1-ium-1,2-diolate [S-acetyl-(2-mercaptoethyl)]ester]

- cleavage to DEA/NO anion, then to NO ([2]; pH 3): only extremely slowly
- cleavage to DEA/NO anion, then to NO ([2]; pH 13): extremely rapidly
SMILES: CCN(CC)[N+]([O-])=NOC1O[C@H](CO)[C@@H](O)[C@H](O)[C@H]1O (stereo partly shown) [Example 31, O^2-glucopyranosyl 1-(N,N-diethylamino)diazen-1-ium-1,2-diolate]

From patent publication US7081524B2, “O2-substituted 1-[(2-carboxylato)pyrrolidin-1-yl]diazen-1-ium-1,2-diolates” (The United States of America as represented by the …, priority 1996, dated 2006)
